Like-named read-outs stand apart in the source and are kept apart here.
Columns and labels:
Human MMP1 = target: T1, Human MMP1 (Homo sapiens, UniProt P03956); assay: MMP1 inhibition experiment; type: biochemical; details: read-out: IC50 value MMP-1
T1 construct: purchased Calbiochem 444208
T1 sequence (P03956 100-469): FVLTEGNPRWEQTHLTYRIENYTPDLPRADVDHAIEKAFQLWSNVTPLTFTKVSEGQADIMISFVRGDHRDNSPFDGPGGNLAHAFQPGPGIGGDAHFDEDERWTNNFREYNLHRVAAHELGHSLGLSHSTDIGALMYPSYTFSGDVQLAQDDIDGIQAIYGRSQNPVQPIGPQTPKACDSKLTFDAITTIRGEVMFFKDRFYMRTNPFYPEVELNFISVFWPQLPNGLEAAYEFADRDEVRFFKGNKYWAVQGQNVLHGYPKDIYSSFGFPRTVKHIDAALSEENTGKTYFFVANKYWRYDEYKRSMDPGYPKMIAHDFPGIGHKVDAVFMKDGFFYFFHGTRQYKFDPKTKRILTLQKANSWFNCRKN

Human MMP3 = target: T2, Human MMP3 (Homo sapiens, UniProt P08254); assay: MMP3 inhibition experiment; type: biochemical; details: concentration required for 50% inhibition of enzyme activity; read-out: IC50 value MMP-3
T2 construct: purchased Calbiochem 444217
Method in brief: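 Fluorescence-quenched substrate NFF-3 (MOCAc/Dnp peptide, 20 μM as prepared) cleaved by 5 ng human MMP3 over 5 hours at 37° C, with inhibition measured from substrate fluorescence.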

Human MMP9 = target: T3, Human MMP9 (Homo sapiens, UniProt P14780); assay: MMP9 inhibition experiment; type: biochemical; details: read-out: IC50 value MMP-9
T3 construct: purchased Calbiochem 444231

Human MMP13 = target: T4, Human MMP13 (Homo sapiens, UniProt P45452); assay: MMP13 inhibition experiment; type: biochemical; details: concentration required for 50% inhibition of enzyme activity; read-out: IC50 value MMP-13
T4 construct: purchased Chemicon CC068

Human MMP14 = target: T5, Human MMP14 (Homo sapiens, UniProt P50281); assay: MMP14 inhibition experiment; type: biochemical; details: concentration required for 50% inhibition of enzyme activity; read-out: IC50 value MMP-14
T5 construct: purchased Biogenesis or Calbiochem 5980-1461 or 475935
Method in brief: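 Fluorescence assay: substrate Dnp-Pro-Cha-Gly-Cys(Me)-His-Ala-Lys(Nma)-NH2 (20 μM before equal-volume mixing) incubated at 37° C for 5 hours with 4 ng human MMP14.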

Human MMP17 = target: T6, Human MMP17 (Homo sapiens, UniProt Q9ULZ9); assay: MMP17 inhibition test; type: biochemical; details: concentration required for 50% inhibition of enzyme activity; read-out: IC50 value MMP-17
T6 construct: purchased Calbiochem 475940
T6 sequence (Q9ULZ9 126-300 limits assumed): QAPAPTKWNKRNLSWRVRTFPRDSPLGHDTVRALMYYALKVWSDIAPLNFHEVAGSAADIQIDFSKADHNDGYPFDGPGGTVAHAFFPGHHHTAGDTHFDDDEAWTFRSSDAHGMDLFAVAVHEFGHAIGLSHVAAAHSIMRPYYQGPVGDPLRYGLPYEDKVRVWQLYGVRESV

[1] = system: TNF-α production (release); assay: Study for suppression of TNF-α production (release) in vivo; details: male Lewis rats, LPS 1 mL/kg i.v.; test compound 3 mg/kg subcutaneous 30 minutes later; plasma TNF-α 90 minutes after LPS (ELISA)
TACE = target: T7, TACE (Homo sapiens, UniProt P78536); assay: TACE inhibition experiment (in vitro); type: biochemical
T7 construct: made in house; host or cells: mammalian cells or insect cells

Human MMP2 = target: T8, Human MMP2 (Homo sapiens, UniProt P08253); assay: MMP2 inhibition experiment; type: biochemical; details: concentration required for 50% inhibition of enzyme activity; read-out: IC50 value MMP-2
T8 construct: purchased Calbiochem 444213
T8 sequence (P08253 110-660): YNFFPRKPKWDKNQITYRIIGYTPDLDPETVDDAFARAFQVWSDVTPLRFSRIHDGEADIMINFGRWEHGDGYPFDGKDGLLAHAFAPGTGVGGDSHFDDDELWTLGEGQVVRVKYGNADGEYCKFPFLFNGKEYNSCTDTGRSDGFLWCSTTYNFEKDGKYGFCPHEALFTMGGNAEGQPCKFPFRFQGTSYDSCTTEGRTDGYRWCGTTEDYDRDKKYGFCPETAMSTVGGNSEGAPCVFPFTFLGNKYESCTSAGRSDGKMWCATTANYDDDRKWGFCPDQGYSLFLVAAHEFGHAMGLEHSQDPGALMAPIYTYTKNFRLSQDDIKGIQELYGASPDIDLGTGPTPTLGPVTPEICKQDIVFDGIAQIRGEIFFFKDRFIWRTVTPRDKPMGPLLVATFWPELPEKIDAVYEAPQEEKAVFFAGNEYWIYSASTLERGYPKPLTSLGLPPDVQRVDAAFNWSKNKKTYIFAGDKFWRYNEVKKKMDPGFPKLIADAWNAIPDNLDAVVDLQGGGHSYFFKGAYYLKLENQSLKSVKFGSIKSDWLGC

Human MMP8 = target: T9, Human MMP8 (Homo sapiens, UniProt P22894); assay: MMP8 inhibition experiment; type: biochemical; details: concentration required for 50% inhibition of enzyme activity; read-out: IC50 value MMP-8
T9 construct: purchased Calbiochem 444229
Method in brief: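 Human MMP8 activated with APMA for 1 h at 37° C, then incubated with fluorogenic peptide MOCAc-Pro-Leu-Gly-Leu-A2pr(Dnp)-Ala-Arg-NH2 (20 μM stock) for 5 hours at 37° C. Fluorescent substrate cleavage serves as read-out.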

T7 sequence (P78536 215-824): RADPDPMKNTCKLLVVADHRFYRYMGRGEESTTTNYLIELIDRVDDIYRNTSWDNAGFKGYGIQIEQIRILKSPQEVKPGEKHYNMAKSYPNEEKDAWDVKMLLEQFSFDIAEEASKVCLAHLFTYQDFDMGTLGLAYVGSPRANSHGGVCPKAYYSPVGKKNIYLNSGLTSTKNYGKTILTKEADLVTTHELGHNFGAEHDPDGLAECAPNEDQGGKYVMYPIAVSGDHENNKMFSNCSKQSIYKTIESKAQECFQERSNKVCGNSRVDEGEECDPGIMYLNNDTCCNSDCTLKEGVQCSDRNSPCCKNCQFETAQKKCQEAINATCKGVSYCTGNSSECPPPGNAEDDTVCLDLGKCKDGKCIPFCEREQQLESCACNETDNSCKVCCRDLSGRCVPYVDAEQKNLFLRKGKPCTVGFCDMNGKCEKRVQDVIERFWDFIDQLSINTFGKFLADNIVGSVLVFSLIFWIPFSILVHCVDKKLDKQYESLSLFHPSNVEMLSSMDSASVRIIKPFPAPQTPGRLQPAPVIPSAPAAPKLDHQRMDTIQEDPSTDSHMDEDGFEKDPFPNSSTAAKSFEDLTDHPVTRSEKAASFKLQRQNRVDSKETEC
T3 sequence (P14780 107-707 limits assumed): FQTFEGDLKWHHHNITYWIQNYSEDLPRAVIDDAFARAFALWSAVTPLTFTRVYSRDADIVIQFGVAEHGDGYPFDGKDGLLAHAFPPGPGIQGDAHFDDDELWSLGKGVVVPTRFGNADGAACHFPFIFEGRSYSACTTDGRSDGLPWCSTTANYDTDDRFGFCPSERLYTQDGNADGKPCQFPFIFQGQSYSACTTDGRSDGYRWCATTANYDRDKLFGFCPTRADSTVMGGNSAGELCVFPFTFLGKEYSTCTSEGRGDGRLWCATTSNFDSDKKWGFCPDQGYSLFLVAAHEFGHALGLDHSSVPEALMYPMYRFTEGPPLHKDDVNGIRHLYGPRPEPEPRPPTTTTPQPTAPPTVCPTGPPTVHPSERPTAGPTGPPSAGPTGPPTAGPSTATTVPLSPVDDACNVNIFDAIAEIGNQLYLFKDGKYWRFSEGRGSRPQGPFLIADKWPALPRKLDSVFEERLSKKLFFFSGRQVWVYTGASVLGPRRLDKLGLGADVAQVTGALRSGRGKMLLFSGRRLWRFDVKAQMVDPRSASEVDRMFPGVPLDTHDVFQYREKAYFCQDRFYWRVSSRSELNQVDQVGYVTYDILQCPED
T2 sequence (P08254 100-272 limits assumed): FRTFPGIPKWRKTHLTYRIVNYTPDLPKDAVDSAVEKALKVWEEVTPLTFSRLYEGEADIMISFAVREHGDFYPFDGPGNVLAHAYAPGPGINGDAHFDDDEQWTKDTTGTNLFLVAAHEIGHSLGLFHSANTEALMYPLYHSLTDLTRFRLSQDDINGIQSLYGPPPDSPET
T9 sequence (P22894 101-467): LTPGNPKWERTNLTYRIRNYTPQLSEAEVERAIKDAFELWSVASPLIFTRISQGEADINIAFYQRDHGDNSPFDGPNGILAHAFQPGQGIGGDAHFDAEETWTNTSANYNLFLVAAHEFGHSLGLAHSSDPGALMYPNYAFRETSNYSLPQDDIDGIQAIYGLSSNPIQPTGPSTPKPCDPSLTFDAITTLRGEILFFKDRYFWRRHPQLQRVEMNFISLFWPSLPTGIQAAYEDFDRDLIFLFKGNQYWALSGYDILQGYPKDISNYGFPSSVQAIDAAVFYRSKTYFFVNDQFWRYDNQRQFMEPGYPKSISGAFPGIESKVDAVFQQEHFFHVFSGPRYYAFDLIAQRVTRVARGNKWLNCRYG

Row | IC50 (Human MMP1) | IC50 (Human MMP3) | IC50 (Human MMP9) | IC50 (Human MMP13) | IC50 (Human MMP14) | IC50 (Human MMP17) | IC50 (TACE; concentration required for 50% inhibition of enzyme activity) | IC50 (TACE) | IC50 (Human MMP2) | IC50 (Human MMP8) | SMILES | Suppression rate of TNF-α production (release) (%) [1]
1 | 60 µM | 1.5 µM | 50 µM | 6 µM | 53 µM | 0.4 µM | – | – | – | – | Cc1cc(COc2ccc(S(=O)(=O)CC(CC3CCC(=O)CC3)N(O)C=O)cc2)c2ccccc2n1 (stereo not drawn) [Example I-2, N-Hydroxy-N-[2-{4-(2-methylquinolin-4-ylmethoxy)benzenesulfonyl}-1-(4-oxocyclohexylmethyl)ethyl]formamide] | 42.3%
2 | – | 10 µM | – | 40 µM | – | 4 µM | 0.006 µM | – | – | – | Cc1cc(COc2ccc(S(=O)(=O)CC(C=C3CCN(CC(C)C)CC3)N(O)C=O)cc2)c2ccccc2n1 (stereo not drawn) [Example I-24, N-Hydroxy-N-{1-(1-isobutylpiperidin-4-ylidenemethyl)-2-[4-(2-methylquinolin-4-ylmethoxy)benzenesulfonyl]ethyl}formamide] | 56.0%
3 | 34 µM | 4.8 µM | 24 µM | 5.8 µM | 7 µM | 4.8 µM | – | 0.006 µM | 1.9 µM | 1.9 µM | Cc1cc(COc2ccc(S(=O)(=O)CC(c3ccccc3C)N(O)C=O)cc2)c2cccc(F)c2n1 (stereo not drawn) [Example I-124, N-{2-[4-(8-fluoro-2-methylquinolin-4-ylmethoxy)benzenesulfonyl]-1-o-tolylethyl}-N-hydroxyformamide] | –
4 | > 100 µM | 1.3 µM | > 100 µM | 22 µM | 50 µM | 0.54 µM | – | 0.032 µM | 43 µM | 25 µM | COCOC1CCC(C)(C(CS(=O)(=O)c2ccc(OCc3cc(C)nc4ccccc34)cc2)N(O)C=O)CC1 (stereo not drawn) [Example I-128] | –
5 | > 100 µM | 3.1 µM | > 100 µM | 17 µM | 50 µM | 3.4 µM | – | 0.012 µM | 12 µM | 33 µM | Cc1cccc(CCC(CS(=O)(=O)c2ccc(OCc3cc(C)nc4ccccc34)cc2)N(O)C=O)n1 (stereo not drawn) [Example I-129] | –
6 | 50 µM | 0.24 µM | 46 µM | 2.7 µM | 19 µM | 0.11 µM | – | 0.014 µM | 2.6 µM | 7 µM | CCC(CC)C(=O)N1CCCC(C(CS(=O)(=O)c2ccc(OCc3cc(C)nc4ccccc34)cc2)N(O)C=O)C1 (stereo not drawn) [Example I-130] | –
7 | 47 µM | 0.2 µM | 50 µM | 3.2 µM | 22 µM | 0.1 µM | – | 0.02 µM | 4.4 µM | 4.1 µM | Cc1cc(COc2ccc(S(=O)(=O)CC(C3CCCN(C(=O)c4ccccc4)C3)N(O)C=O)cc2)c2ccccc2n1 (stereo not drawn) [Example I-131] | –
8 | 53 µM | 0.21 µM | 40 µM | 2.2 µM | 16 µM | 0.085 µM | – | 0.023 µM | 2.2 µM | 8 µM | CCC(CC)C(=O)N1CCC(C(CS(=O)(=O)c2ccc(OCc3cc(C)nc4ccccc34)cc2)N(O)C=O)CC1 (stereo not drawn) [Example I-132] | –
9 | 48 µM | 2 µM | 50 µM | 26 µM | 50 µM | 0.62 µM | – | 0.0065 µM | 26 µM | 13 µM | Cc1cc(COc2ccc(S(=O)(=O)CC([C@H]3CSC(=O)N3C)N(O)C=O)cc2)c2ccccc2n1 (stereo partly drawn) [Example I-136] | –
10 | > 100 µM | 3.2 µM | > 100 µM | 50 µM | > 100 µM | 0.9 µM | – | 0.024 µM | > 100 µM | 23 µM | Cc1cc(COc2ccc(S(=O)(=O)CC(N(O)C=O)C3(C)CCC(O)CC3)cc2)c2ccccc2n1 (stereo not drawn) [Example I-137] | –
11 | > 100 µM | 26 µM | > 100 µM | 35 µM | 90 µM | 23 µM | – | 0.03 µM | 95 µM | > 100 µM | Cc1cccc(C(CS(=O)(=O)c2ccc(OCc3cc(C)nc4ccc(F)cc34)cc2)N(O)C=O)n1 (stereo not drawn) [Example I-149] | –
12 | > 100 µM | 4 µM | > 100 µM | 18 µM | 58 µM | 2.4 µM | – | 0.0025 µM | 34 µM | 27 µM | Cc1cncc(C(CS(=O)(=O)c2ccc(OCc3cc(C)nc4c(F)cccc34)cc2)N(O)C=O)c1 (stereo not drawn) [Example I-150] | –

— US7511144B2, “Reverse hydroxamic acid derivatives” (Kaken Pharmaceutical Co., Ltd., priority 2001, dated 2009)
